In PubChem BioAssay (NCI):
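Following 48 hours of exposure in 96-well plates, responses at five concentrations were used to interpolate endpoints linearly. GI50: concentration for 50% inhibition of growth. At the TGI there is no net growth.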

What was measured:
Assay in all cases: inhibition of tumour cell growth, NCI panel, 48 h
SF-268 CNS = tested on: SF-268 CNS
NCI-H23 lung = tested on: NCI-H23 lung
CCRF-CEM leukemia = tested on: CCRF-CEM leukemia
HT29 colon = tested on: HT29 colon
SF-539 CNS = tested on: SF-539 CNS
HOP-62 NSCLC = tested on: HOP-62 NSCLC
MCF7 breast = tested on: MCF7 breast
SNB-19 CNS = tested on: SNB-19 CNS
SW-620 colon = tested on: SW-620 colon
HL-60(TB) leukemia = tested on: HL-60(TB) leukemia
OVCAR-3 ovarian = tested on: OVCAR-3 ovarian
IGROV1 ovarian = tested on: IGROV1 ovarian
M14 melanoma = tested on: M14 melanoma
SNB-75 CNS = tested on: SNB-75 CNS
MDA-MB-435 = tested on: MDA-MB-435
NCI-H226 lung = tested on: NCI-H226 lung
SK-MEL-2 melanoma = tested on: SK-MEL-2 melanoma
KM12 colon = tested on: KM12 colon
UACC-62 melanoma = tested on: UACC-62 melanoma
HCC-2998 colon = tested on: HCC-2998 colon
SN12C renal = tested on: SN12C renal
COLO 205 colon = tested on: COLO 205 colon
BT-549 breast = tested on: BT-549 breast
A549 NSCLC = tested on: A549 NSCLC
UO-31 renal = tested on: UO-31 renal
U251 CNS = tested on: U251 CNS
786-0 renal = tested on: 786-0 renal
MALME-3M melanoma = tested on: MALME-3M melanoma
RPMI-8226 leukemia = tested on: RPMI-8226 leukemia
LOX IMVI melanoma = tested on: LOX IMVI melanoma
T-47D breast = tested on: T-47D breast
SK-OV-3 ovarian = tested on: SK-OV-3 ovarian
PC-3 prostate = tested on: PC-3 prostate
HOP-92 NSCLC = tested on: HOP-92 NSCLC
ACHN renal = tested on: ACHN renal
HCT-15 colon = tested on: HCT-15 colon
DU-145 prostate = tested on: DU-145 prostate
HCT-116 colon = tested on: HCT-116 colon
MOLT-4 leukemia = tested on: MOLT-4 leukemia
TK-10 renal = tested on: TK-10 renal
UACC-257 melanoma = tested on: UACC-257 melanoma
EKVX NSCLC = tested on: EKVX NSCLC
NCI-H460 lung = tested on: NCI-H460 lung
OVCAR-4 ovarian = tested on: OVCAR-4 ovarian
NCI-H522 lung = tested on: NCI-H522 lung
SK-MEL-5 melanoma = tested on: SK-MEL-5 melanoma
OVCAR-5 ovarian = tested on: OVCAR-5 ovarian
RXF 393 renal = tested on: RXF 393 renal
NCI/ADR-RES ovarian = tested on: NCI/ADR-RES ovarian
SF-295 CNS = tested on: SF-295 CNS
A498 renal = tested on: A498 renal
HS 578T breast = tested on: HS 578T breast
SK-MEL-28 melanoma = tested on: SK-MEL-28 melanoma
MDA-MB-231 breast = tested on: MDA-MB-231 breast
OVCAR-8 ovarian = tested on: OVCAR-8 ovarian
CAKI-1 renal = tested on: CAKI-1 renal

Cc1ncc(C(=O)Nc2ccc(CN3CCN(C)CC3)c(C(F)(F)F)c2)cc1C#Cc1c(N)ncc2ccc(F)cc12
GI50 (SF-268 CNS): 717 nM
TGI (SF-268 CNS): 2500 nM
GI50 (NCI-H23 lung): 596 nM
TGI (NCI-H23 lung): 1370 nM
GI50 (CCRF-CEM leukemia): 809 nM
TGI (CCRF-CEM leukemia): 2140 nM
GI50 (HT29 colon): 68.9 nM
TGI (HT29 colon): 651 nM
GI50 (SF-539 CNS): 624 nM
TGI (SF-539 CNS): 1300 nM
GI50 (HOP-62 NSCLC): 1180 nM
TGI (HOP-62 NSCLC): 8180 nM
GI50 (MCF7 breast): 503 nM
TGI (MCF7 breast): 1330 nM
GI50 (SNB-19 CNS): 787 nM
TGI (SNB-19 CNS): 1490 nM
GI50 (SW-620 colon): 274 nM
TGI (SW-620 colon): 1070 nM
GI50 (HL-60(TB) leukemia): 319 nM
TGI (HL-60(TB) leukemia): 2060 nM
GI50 (OVCAR-3 ovarian): 789 nM
TGI (OVCAR-3 ovarian): 1540 nM
GI50 (IGROV1 ovarian): 301 nM
TGI (IGROV1 ovarian): 6270 nM
GI50 (M14 melanoma): 128 nM
TGI (M14 melanoma): 690 nM
GI50 (SNB-75 CNS): 774 nM
TGI (SNB-75 CNS): 2270 nM
GI50 (MDA-MB-435): 170 nM
TGI (MDA-MB-435): 1040 nM
GI50 (NCI-H226 lung): 624 nM
TGI (NCI-H226 lung): 3650 nM
GI50 (SK-MEL-2 melanoma): 1050 nM
TGI (SK-MEL-2 melanoma): 5770 nM
GI50 (KM12 colon): 5 nM
TGI (KM12 colon): 646 nM
GI50 (UACC-62 melanoma): 282 nM
TGI (UACC-62 melanoma): 2840 nM
GI50 (HCC-2998 colon): 1010 nM
TGI (HCC-2998 colon): 7810 nM
GI50 (SN12C renal): 422 nM
TGI (SN12C renal): 3050 nM
GI50 (COLO 205 colon): 197 nM
TGI (COLO 205 colon): 1230 nM
GI50 (BT-549 breast): 1490 nM
TGI (BT-549 breast): 4120 nM
GI50 (A549 NSCLC): 631 nM
TGI (A549 NSCLC): 1440 nM
GI50 (UO-31 renal): 602 nM
TGI (UO-31 renal): 2800 nM
GI50 (U251 CNS): 826 nM
TGI (U251 CNS): 1580 nM
GI50 (786-0 renal): 756 nM
TGI (786-0 renal): 1560 nM
GI50 (MALME-3M melanoma): 105 nM
TGI (MALME-3M melanoma): 601 nM
GI50 (RPMI-8226 leukemia): 673 nM
TGI (RPMI-8226 leukemia): 2170 nM
GI50 (LOX IMVI melanoma): 184 nM
TGI (LOX IMVI melanoma): 841 nM
GI50 (T-47D breast): 4100 nM
TGI (T-47D breast): 16300 nM
GI50 (SK-OV-3 ovarian): 4790 nM
TGI (SK-OV-3 ovarian): 12000 nM
GI50 (PC-3 prostate): 870 nM
TGI (PC-3 prostate): 3140 nM
GI50 (HOP-92 NSCLC): 48.9 nM
TGI (HOP-92 NSCLC): 468 nM
GI50 (ACHN renal): 374 nM
TGI (ACHN renal): 3230 nM
GI50 (HCT-15 colon): 559 nM
TGI (HCT-15 colon): 3150 nM
GI50 (DU-145 prostate): 692 nM
TGI (DU-145 prostate): 1390 nM
GI50 (HCT-116 colon): 176 nM
TGI (HCT-116 colon): 873 nM
GI50 (MOLT-4 leukemia): 579 nM
TGI (MOLT-4 leukemia): 1740 nM
GI50 (TK-10 renal): 715 nM
TGI (TK-10 renal): 1520 nM
GI50 (UACC-257 melanoma): 649 nM
TGI (UACC-257 melanoma): 3220 nM
GI50 (EKVX NSCLC): 1540 nM
TGI (EKVX NSCLC): 9370 nM
GI50 (NCI-H460 lung): 643 nM
TGI (NCI-H460 lung): 1470 nM
GI50 (OVCAR-4 ovarian): 2600 nM
TGI (OVCAR-4 ovarian): 10800 nM
GI50 (NCI-H522 lung): 668 nM
TGI (NCI-H522 lung): 1830 nM
GI50 (SK-MEL-5 melanoma): 678 nM
TGI (SK-MEL-5 melanoma): 1530 nM
GI50 (OVCAR-5 ovarian): 669 nM
TGI (OVCAR-5 ovarian): 3030 nM
GI50 (RXF 393 renal): 608 nM
TGI (RXF 393 renal): 1290 nM
GI50 (NCI/ADR-RES ovarian): 1260 nM
TGI (NCI/ADR-RES ovarian): 4250 nM
GI50 (SF-295 CNS): 3450 nM
TGI (SF-295 CNS): 11300 nM
GI50 (A498 renal): 930 nM
TGI (A498 renal): 1740 nM
GI50 (HS 578T breast): 588 nM
TGI (HS 578T breast): 2740 nM
GI50 (SK-MEL-28 melanoma): 415 nM
TGI (SK-MEL-28 melanoma): 1230 nM
GI50 (MDA-MB-231 breast): 129 nM
TGI (MDA-MB-231 breast): 743 nM
GI50 (OVCAR-8 ovarian): 931 nM
TGI (OVCAR-8 ovarian): 2410 nM
GI50 (CAKI-1 renal): 1050 nM
TGI (CAKI-1 renal): 6160 nM
